# Values quoted from earlier work in US20240408056A1, “METHODS FOR REPAIRING NERVE DAMAGE USING PKC ACTIVATING THERAPEUTIC AGENTS” (priority 2023, published 2024).
# Read-outs that look alike come from different tables or passages of the source.
# Target: PKC
# [1] = A-ring bryologs, read-out: affinity for PKC
SMILES,Ki [1],"Ki (Table 1, Bryologs, read-out: PKC Affinity)",affinity for PKC (in words) (compared with Bryostatin-1 and the other bryologs)
CCCCCCCC(=O)OC1C(=CC(=O)OC)CC2CC(CO)OC(=O)CC(O)CCOC(CCCc3ccc(Br)cc3)CC3CCOC(C=CC(C)(C)C1(O)O2)O3 (centres unmarked) [bryolog 5],1.9 nM,,
CCCCCCCC(=O)OC1C(=CC(=O)OC)CC2CC(CO)OC(=O)CC(O)CCOC(C(C)(C)C)CC3CCOC(C=CC(C)(C)C1(O)O2)O3 (centres unmarked) [bryolog 3],6.5 nM,,
CCCCCCCC(=O)OC1C(=CC(=O)OC)CC2CC(CO)OC(=O)CC(O)CC3CCCC(CC4CCOC(C=CC(C)(C)C1(O)O2)O4)O3 (centres unmarked) [Analog 1],,0.25 nM,highest affinity for PKC
CCCCCCCC(=O)OC1C(=CC(=O)OC)CC2CC(CO)OC(=O)CC(O)CCOC(c3ccccc3)CC3CCOC(C=CC(C)(C)C1(O)O2)O3 (centres unmarked) [bryolog 4],2.3 nM,,
